Assays:
[1] = target: T1, EGFR T790M L858R (Homo sapiens, UniProt P00533, L858R/T790M); experiment: EGFR T790M L858R biochemical assay (Caliper mobility shift); details: 5 μM ATP; apparent Ki (Morrison fit) converted by Cheng-Prusoff, Km of ATP 1.3 μM
T1 construct: purchased Life Technologies PV4879
Protocol: (§1) The exemplified compounds described herein were tested according to the assay below. The enzyme data reported in Tables 4-5 is generally a representative of multiple experiments.
Reactions proceed for 30 minutes at room temperature (22° C.) and are terminated with 80 mM 2,2′,2″,2′″-(ethane-1,2-diyldinitrilo)tetraacetic acid (EDTA). Product is detected using the Caliper mobility shift detection method where product and substrate are electrophoretically separated and measured.

[2] = target: T2, EGFR del746-750 T790M (Homo sapiens, UniProt P00533, DEL746-750/T790M); experiment: EGFR del746-750 T790M biochemical assay (Caliper mobility shift); details: 5 μM ATP; apparent Ki (Morrison fit) converted by Cheng-Prusoff, Km of ATP 2.1 μM; read-out: EGFR(T790M/d746-750) Ki
T2 construct: purchased Carna Biosciences 08-528
T2 sequence (P00533 with tags, fused parts or gaps DEL746-750/T790M limits assumed): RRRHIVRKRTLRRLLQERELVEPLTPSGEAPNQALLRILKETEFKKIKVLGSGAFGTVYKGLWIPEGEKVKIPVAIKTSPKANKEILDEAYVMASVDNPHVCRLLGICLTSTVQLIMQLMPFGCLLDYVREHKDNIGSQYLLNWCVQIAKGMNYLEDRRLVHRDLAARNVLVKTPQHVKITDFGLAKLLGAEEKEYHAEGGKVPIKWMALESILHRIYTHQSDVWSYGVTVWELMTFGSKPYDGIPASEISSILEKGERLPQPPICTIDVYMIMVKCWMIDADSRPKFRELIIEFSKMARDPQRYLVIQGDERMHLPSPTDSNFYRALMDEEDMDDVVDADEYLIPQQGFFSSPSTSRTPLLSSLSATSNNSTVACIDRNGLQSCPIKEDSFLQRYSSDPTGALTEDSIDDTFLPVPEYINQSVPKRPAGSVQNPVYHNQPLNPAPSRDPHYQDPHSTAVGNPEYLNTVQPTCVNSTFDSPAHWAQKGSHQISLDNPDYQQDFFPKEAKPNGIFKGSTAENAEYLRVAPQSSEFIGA
Protocol: as §1
Reactions proceed for 30 minutes at room temperature (22° C.) and are terminated with 80 mM 2,2′,2″,2″′-(ethane-1,2-diyldinitrilo)tetraacetic acid (EDTA). Product is detected using the Caliper mobility shift detection method where product and substrate are electrophoretically separated and measured.

[3] = target: T3, phosphor-EGFR in H1975(L585R/T790M) mutant EGFR expressing cells (Homo sapiens, UniProt P00533, L858R/T790M); experiment: H1975 pEGFR MSD cellular assay; format: cell-based; details: NCI-H1975 cells, serum starved, 1 hour compound incubation, pEGFR Tyr1068 MSD; read-out: HI975 pEGFR EC50
T3 construct: host or cells: NCI-H1975
T3 sequence (P00533 25-1210 T790M/L858R): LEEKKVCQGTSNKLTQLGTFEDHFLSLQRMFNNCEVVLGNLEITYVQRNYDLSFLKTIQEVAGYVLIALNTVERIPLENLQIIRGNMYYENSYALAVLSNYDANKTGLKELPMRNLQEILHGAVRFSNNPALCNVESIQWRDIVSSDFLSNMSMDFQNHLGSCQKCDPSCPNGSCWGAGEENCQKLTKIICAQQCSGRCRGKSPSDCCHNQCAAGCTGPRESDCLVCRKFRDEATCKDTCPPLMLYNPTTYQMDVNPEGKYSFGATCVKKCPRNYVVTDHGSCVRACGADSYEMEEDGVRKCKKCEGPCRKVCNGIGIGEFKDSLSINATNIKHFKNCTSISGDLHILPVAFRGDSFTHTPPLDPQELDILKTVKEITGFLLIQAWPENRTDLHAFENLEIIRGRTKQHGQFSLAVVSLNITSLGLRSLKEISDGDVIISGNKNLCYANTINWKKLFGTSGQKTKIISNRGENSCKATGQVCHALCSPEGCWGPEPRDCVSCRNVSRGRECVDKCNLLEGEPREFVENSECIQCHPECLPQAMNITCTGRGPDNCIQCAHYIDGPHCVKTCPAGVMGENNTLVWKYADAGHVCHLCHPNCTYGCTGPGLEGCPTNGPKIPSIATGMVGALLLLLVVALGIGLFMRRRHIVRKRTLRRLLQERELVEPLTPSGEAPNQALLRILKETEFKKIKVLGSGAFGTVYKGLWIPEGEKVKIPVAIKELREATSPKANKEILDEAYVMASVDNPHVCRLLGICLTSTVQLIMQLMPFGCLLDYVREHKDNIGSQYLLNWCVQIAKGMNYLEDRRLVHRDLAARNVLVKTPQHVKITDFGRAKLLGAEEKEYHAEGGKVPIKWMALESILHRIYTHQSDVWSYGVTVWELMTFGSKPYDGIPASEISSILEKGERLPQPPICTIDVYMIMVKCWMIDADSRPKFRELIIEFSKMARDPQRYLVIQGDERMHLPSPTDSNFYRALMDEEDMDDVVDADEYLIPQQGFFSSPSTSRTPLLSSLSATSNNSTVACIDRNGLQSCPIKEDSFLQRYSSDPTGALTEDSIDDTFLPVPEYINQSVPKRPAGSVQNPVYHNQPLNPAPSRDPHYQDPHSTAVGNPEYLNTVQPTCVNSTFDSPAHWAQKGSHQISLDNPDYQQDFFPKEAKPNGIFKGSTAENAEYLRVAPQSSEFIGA
Protocol: H1975 pEGFR MSD Cellular Assays
These assays are intended for determining cellular. […] (Meso Scale Discovery Catalog# N31CB-1).
NCI-H1975 (ATCC Catalog# CRL-5908) cells are maintained in medium containing RPMI 1640, 10% FBS, 4 mM L-Glutamine, 1% Penicillin-Streptomycin, and 4.5 g/L Glucose. All cell culture reagents were purchased from Invitrogen/Gibco. Cells are cultured at 37° C. at 5% CO2 and split as recommended by ATCC.
Cell Plating and Serum Starvation:
H1975 cells are harvested and plated into sterile cell culture treated 384 well plates (Greiner catalog #781091) at a density of 30,000 cells/well in 50 ul culture medium and placed in a 37° C. at 5% CO2 incubator for six hours. After six hours, culture medium is aspirated and replaced with serum-free culture medium. Cells are then incubated with the serum-free medium overnight at 37° C. and 5% CO2.
The following day, test compounds are serially diluted in dimethyl sulfoxide (DMSO) and added to cells in serum free medium (final DMSO concentration 0.5%). Assay plates are then incubated for 1 hour at 37° C. and 5% CO2. Following 1 hour of compound incubation cells are then lysed and processed as per the MSD pEGFR assay kit protocol. Cell lysates are added to assay plates pre-coated with antibodies against phosphorylated EGFR. Phosphorylated EGFR in samples are allowed to bind to the capture antibodies overnight at 4° C. The detection antibody (anti-total EGFR, labeled with an electrochemiluminescent SULFO-TAG) is added to the bound lysate and incubated for 1 hour at room temperature. The MSD Read Buffer is added such that when a voltage is applied to the plate electrodes, the labels bound to the electrode surface emit light. The MSD Sector Instrument measures the intensity of the light, and quantitatively measures the amount of phosphorylated-EGFR in the sample. Percent inhibition of EGFR phosphorylation by varying concentrations of test compounds is calculated relative to untreated controls. EC50 values are calculated using the 4 parameter logistic nonlinear regression dose-response model.

[4] = test system: H1975 (EGFR T790M/L858R) cell proliferation; experiment: H1975 proliferation assay (Cell Titer-Glo); format: cell-based; details: Homo sapiens, NCI-H1975, 72 h, NCI-H1975 cells, 72 hour incubation, read-out: H1975 antiproliferative EC50
Protocol: H1975 Proliferation Assays
All cell culture reagents were purchased from Invitrogen/Gibco. Cells are cultured at 37° C. at 5% CO2 and split as recommended by ATCC.

T1 sequence (P00533 25-1210 T790M/L858R): as above

SMILES | Ki [1] | Ki [2] | EC50 [3] | EC50 [4]
CC(C)n1nc(NC(C)(C)C(N)=O)c2cnc(Nc3ccnc(N4CC[C@H](O)[C@H](F)C4)n3)cc21 (racemic) [Example 182, (±)-2-(6-(2-(cis-3-Fluoro-4-hydroxypiperidin-1-yl)pyrimidin-4-ylamino)-1-isopropyl-1H-pyrazolo[4,3-c]pyridin-3-ylamino)-2-methylpropanamide] | 377 nM | 1150 nM | – | –
CC[C@H](C)n1nc(N2CC[C@@H](O)C2)c2cnc(Nc3ccnc(N4CC[C@](C)(C(N)=O)C4)n3)cc21 (relative stereo) [Example 209, (S*)-1-(4-((1-((S*)-sec-Butyl)-3-((R)-3-hydroxypyrrolidin-1-yl)-1H-pyrazolo[4,3-c]pyridin-6-yl)amino)pyrimidin-2-yl)-3-methylpyrrolidine-3-carboxamide] | 143 nM | 111 nM | – | –
CCC(C)n1nc(N2CC[C@@H](O)C2)c2cnc(Nc3ccnc(N4CCC5(CC4)CNC(=O)CO5)n3)cc21 (single isomer, unassigned) [Example 207, 9-(4-((1-((S*)-sec-Butyl)-3-((R)-3-hydroxypyrrolidin-1-yl)-1H-pyrazolo[4,3-c]pyridin-6-yl)amino)pyrimidin-2-yl)-1-oxa-4,9-diazaspiro[5.5]undecan-3-one] | 469 nM | 1060 nM | – | –
CC(C)Nc1nn(C(C)C)c2cc(Nc3ccnc(-c4cnn(S(=O)(=O)C5CC5)c4)n3)ncc12 [Example 46, N^6-(2-(1-(cyclopropylsulfonyl)-1H-pyrazol-4-yl)pyrimidin-4-yl)-N^3,1-diisopropyl-1H-pyrazolo[4,3-c]pyridine-3,6-diamine] | 2.7 nM | – | 153 nM | 951 nM
CC(C)n1nc(NCCC(N)=O)c2cnc(Nc3ccnc(-c4cnn(S(=O)(=O)C5CC5)c4)n3)cc21 [Example 47, 3-(6-(2-(1-(cyclopropylsulfonyl)-1H-pyrazol-4-yl)pyrimidin-4-ylamino)-1-isopropyl-1H-pyrazolo[4,3-c]pyridin-3-ylamino)propanamide] | 0.8 nM | – | 874 nM | 3970 nM
CC(C)n1nc(NCC(N)=O)c2cnc(Nc3ccnc(-c4cnn(S(=O)(=O)C5CC5)c4)n3)cc21 [Example 48, 2-(6-(2-(1-(cyclopropylsulfonyl)-1H-pyrazol-4-yl)pyrimidin-4-ylamino)-1-isopropyl-1H-pyrazolo[4,3-c]pyridin-3-ylamino)acetamide] | 0.6 nM | – | 1460 nM | 5440 nM
CC(C)n1nc(N(C)CC(O)CO)c2cnc(Nc3ccnc(-c4cnn(S(=O)(=O)C5CC5)c4)n3)cc21 (centres unmarked) [Example 49, 3-((6-(2-(1-(cyclopropylsulfonyl)-1H-pyrazol-4-yl)pyrimidin-4-ylamino)-1-isopropyl-1H-pyrazolo[4,3-c]pyridin-3-yl)(methyl)amino)propane-1,2-diol] | 0.7 nM | – | 98 nM | 945 nM
CC(C)n1nc(NC2CCOCC2)c2cnc(Nc3ccnc(-c4cnn(S(=O)(=O)C5CC5)c4)n3)cc21 [Example 52, N^6-(2-(1-(cyclopropylsulfonyl)-1H-pyrazol-4-yl)pyrimidin-4-yl)-1-isopropyl-N^3-(tetrahydro-2H-pyran-4-yl)-1H-pyrazolo[4,3-c]pyridine-3,6-diamine] | 2.2 nM | – | 90.1 nM | 1110 nM
CC(C)n1nc(N2CC(C(=O)N(C)C)C2)c2cnc(Nc3ccnc(N4CCC(O)C(C)(C)C4)n3)cc21 (centres unmarked) [Example 56, 1-(6-(2-(4-hydroxy-3,3-dimethylpiperidin-1-yl)pyrimidin-4-ylamino)-1-isopropyl-1H-pyrazolo[4,3-c]pyridin-3-yl)-N,N-dimethylazetidine-3-carboxamide] | 1.2 nM | – | 31.1 nM | 348 nM
CC(C)n1nc(NCC(C)(C)O)c2cnc(Nc3ccnc(-c4cnn(S(=O)(=O)C5CC5)c4)n3)cc21 [Example 61, 1-(6-(2-(1-(cyclopropylsulfonyl)-1H-pyrazol-4-yl)pyrimidin-4-ylamino)-1-isopropyl-1H-pyrazolo[4,3-c]pyridin-3-ylamino)-2-methylpropan-2-ol] | 1 nM | – | 68.9 nM | 1200 nM
CC(C)Oc1nn(C(C)C)c2cc(Nc3ccnc(-c4cnn(S(=O)(=O)C5CC5)c4)n3)ncc12 [Example 62, N-(2-(1-(cyclopropylsulfonyl)-1H-pyrazol-4-yl)pyrimidin-4-yl)-3-isopropoxy-1-isopropyl-1H-pyrazolo[4,3-c]pyridin-6-amine] | 12 nM | – | 458 nM | 3590 nM

The next lines start with the values.

Ki [1] | Ki [2] | EC50 [3] | EC50 [4] | SMILES
0.8 nM | – | 63.8 nM | 247 nM | CC(C)n1nc(N)c2cnc(Nc3ccnc(-c4cnn(S(=O)(=O)C5CC5)c4)n3)cc21 [Example 45, N^6-(2-(1-(cyclopropylsulfonyl)-1H-pyrazol-4-yl)pyrimidin-4-yl)-1-isopropyl-1H-pyrazolo[4,3-c]pyridine-3,6-diamine]
23.5 nM | – | 2380 nM | 3700 nM | CC(C)c1nn(C(C)C)c2cc(Nc3ccnc(-c4cnn(S(=O)(=O)C5CC5)c4)n3)ncc12 [Example 50, N-(2-(1-(cyclopropylsulfonyl)-1H-pyrazol-4-yl)pyrimidin-4-yl)-1,3-diisopropyl-1H-pyrazolo[4,3-c]pyridin-6-amine]
1.9 nM | – | 74.4 nM | 266 nM | CC(C)n1nc(N2CCOCC2)c2cnc(Nc3ccnc(-c4cnn(S(=O)(=O)C5CC5)c4)n3)cc21 [Example 51, N-(2-(1-(cyclopropylsulfonyl)-1H-pyrazol-4-yl)pyrimidin-4-yl)-1-isopropyl-3-morpholino-1H-pyrazolo[4,3-c]pyridin-6-amine]
< 0.6 nM | – | 144 nM | 938 nM | CC(C)n1nc(N2CC(C(N)=O)C2)c2cnc(Nc3ccnc(-c4cnn(S(=O)(=O)C5CC5)c4)n3)cc21 [Example 55, 1-(6-(2-(1-(cyclopropylsulfonyl)-1H-pyrazol-4-yl)pyrimidin-4-ylamino)-1-isopropyl-1H-pyrazolo[4,3-c]pyridin-3-yl)azetidine-3-carboxamide]
< 0.6 nM | – | 18.1 nM | 159 nM | CC(C)n1nc(N2CC(C(=O)N(C)C)C2)c2cnc(Nc3ccnc(-c4cnn(S(=O)(=O)C5CC5)c4)n3)cc21 [Example 57, 1-(6-(2-(1-(cyclopropylsulfonyl)-1H-pyrazol-4-yl)pyrimidin-4-ylamino)-1-isopropyl-1H-pyrazolo[4,3-c]pyridin-3-yl)-N,N-dimethylazetidine-3-carboxamide]
1.2 nM | – | 9.4 nM | 139 nM | CC(C)n1nc(N2CC[C@H](CO)C2)c2cnc(Nc3ccnc(-c4cnn(S(=O)(=O)C5CC5)c4)n3)cc21 [Example 58, (S)-(1-(6-(2-(1-(cyclopropylsulfonyl)-1H-pyrazol-4-yl)pyrimidin-4-ylamino)-1-isopropyl-1H-pyrazolo[4,3-c]pyridin-3-yl)pyrrolidin-3-yl)methanol]
– | 0.8 nM | – | 211 nM | COCC1CN(c2nn(C(C)C)c3cc(Nc4ccnc(-c5cnn(S(=O)(=O)C6CC6)c5)n4)ncc23)C1 [Example 152, N-(2-(1-(Cyclopropylsulfonyl)-1H-pyrazol-4-yl)pyrimidin-4-yl)-1-isopropyl-3-(3-(methoxymethyl)azetidin-1-yl)-1H-pyrazolo[4,3-c]pyridin-6-amine]
